Measured values published in patent US20070122501A1, “Formulations containing astragalus extracts and uses thereof” (Hong Kong University of Science and Technology, priority 2003, published 2007).

What was measured:
[1] = tested on: aging (PD34) adult keratinocytes; experiment: Scratch (wound healing) assay in aging adult keratinocytes (FIGS. 6, 8, 9); assay type: cell-based, human; details: FIG. 8, comparison of extract and PDGF
Description: (§1) Cell lines used in these experiments were obtained from Cascade Biologics, Inc. Neonatal keratinocytes (HEKneo-P) were obtained from a pool generated from three donors, designated HEKn(12), PD 8.46; HEKn(15), PD 9.3; and HEKn(16), PD 5.16. Adult keratinocytes were obtained from a single donor, designated HEKa(18). The terms “neonatal” and “adult” refer to the age of the donor, while the terms “young” and “aging” or “late passage” refer to the age of the cell culture, and correspond to the number of population doublings (indicated as PD no.).
(§2) Cells are plated in flasks (5×10^5 cells per flask) and cultured for two days in a humidified chamber at 5% CO2, 37° C. To create the “wound”, a 2 ml plastic pipette is gently dragged to “scratch” the cell surface. The ideal wound is approximately 2-3 mm wide and 50 mm long (along the long axis of the tissue culture flask). The cells are retreated with medium containing either vehicle (DMSO; control sample) or test compositions at multiple concentrations. […]
(§3) Amount of wound closure is determined by measuring the width of the wound over time for extract-treated samples relative to vehicle-treated or other control cells. […] Percentage of wound healing is calculated by the following formula: WH=100−[100×Wn/W0], where Wn is the width of the wound on day n and W0 is the width of the wound on day one (immediately after scratching).

[2] = tested on: late passage (PD40) neonatal keratinocytes; experiment: Scratch (wound healing) assay in late passage / aging neonatal keratinocytes (FIGS. 7, 10); assay type: cell-based, human; details: FIG. 10
Description: as §1, §2, §3

Substance: PDGF
- state of scratched cell layer by day 4 [1]: confluent or near-confluent
- wound closure after four days [2]: complete or near-complete wound closure
